Measurements as given in PubChem BioAssay (NCI).
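Each compound was tested at five concentrations against cells in 96-well plates for 48 hours. TGI: total growth inhibition.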

Key:
Assay in all cases: growth of human tumour cells (NCI), 48 h
786-0 renal = tested on: 786-0 renal
A549 NSCLC = tested on: A549 NSCLC
ACHN renal = tested on: ACHN renal
CAKI-1 renal = tested on: CAKI-1 renal
CCRF-CEM leukemia = tested on: CCRF-CEM leukemia
COLO 205 colon = tested on: COLO 205 colon
DLD-1 colon = tested on: DLD-1 colon
DMS 114 small cell lung = tested on: DMS 114 small cell lung
DMS 273 small cell lung = tested on: DMS 273 small cell lung
HCC-2998 colon = tested on: HCC-2998 colon
HCT-116 colon = tested on: HCT-116 colon
HCT-15 colon = tested on: HCT-15 colon
HL-60(TB) leukemia = tested on: HL-60(TB) leukemia
HOP-62 NSCLC = tested on: HOP-62 NSCLC
HOP-92 NSCLC = tested on: HOP-92 NSCLC
HT29 colon = tested on: HT29 colon
IGROV1 ovarian = tested on: IGROV1 ovarian
K-562 leukemia = tested on: K-562 leukemia
KM12 colon = tested on: KM12 colon
KM20L2 colon = tested on: KM20L2 colon
LXFL 529 NSCLC = tested on: LXFL 529 NSCLC
M14 melanoma = tested on: M14 melanoma
M19-MEL melanoma = tested on: M19-MEL melanoma
MALME-3M melanoma = tested on: MALME-3M melanoma
MOLT-4 leukemia = tested on: MOLT-4 leukemia
NCI-H226 lung = tested on: NCI-H226 lung
NCI-H23 lung = tested on: NCI-H23 lung
NCI-H460 lung = tested on: NCI-H460 lung
NCI-H522 lung = tested on: NCI-H522 lung
OVCAR-3 ovarian = tested on: OVCAR-3 ovarian
OVCAR-4 ovarian = tested on: OVCAR-4 ovarian
OVCAR-5 ovarian = tested on: OVCAR-5 ovarian
OVCAR-8 ovarian = tested on: OVCAR-8 ovarian
RPMI-8226 leukemia = tested on: RPMI-8226 leukemia
SF-268 CNS = tested on: SF-268 CNS
SF-295 CNS = tested on: SF-295 CNS
SF-539 CNS = tested on: SF-539 CNS
SK-MEL-2 melanoma = tested on: SK-MEL-2 melanoma
SK-MEL-28 melanoma = tested on: SK-MEL-28 melanoma
SK-MEL-5 melanoma = tested on: SK-MEL-5 melanoma
SNB-19 CNS = tested on: SNB-19 CNS
SNB-75 CNS = tested on: SNB-75 CNS
SR leukemia = tested on: SR leukemia
SW-620 colon = tested on: SW-620 colon
TK-10 renal = tested on: TK-10 renal
U251 CNS = tested on: U251 CNS
UACC-257 melanoma = tested on: UACC-257 melanoma
UACC-62 melanoma = tested on: UACC-62 melanoma
UO-31 renal = tested on: UO-31 renal
XF 498 CNS = tested on: XF 498 CNS

Measured: TGI

CC[N+](CC)(CC)Cc1cc2ccccc2n1C(=O)OC
> 100 µM: all assays above
